Test results published in PubChem BioAssay (NCI).
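Following 48 hours of exposure in 96-well plates, responses at five concentrations were used to interpolate endpoints linearly. GI50 = concentration required for 50% inhibition of growth. At the TGI there is no net growth.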

Experiments:
Test in all cases: NCI tumour cell line growth inhibition, 48 h
[1] = test system: RPMI-8226 leukemia
[2] = test system: SK-MEL-28 melanoma
[3] = test system: CCRF-CEM leukemia
[4] = test system: SR leukemia
[5] = test system: UO-31 renal
[6] = test system: MCF7 breast
[7] = test system: HOP-62 NSCLC
[8] = test system: HT29 colon
[9] = test system: 786-0 renal
[10] = test system: SK-MEL-5 melanoma

| Structure (SMILES) | GI50 [1] | TGI [1] | GI50 [2] | TGI [2] | GI50 [3] | TGI [3] | GI50 [4] | TGI [4] | GI50 [5] | TGI [5] | GI50 [6] | TGI [6] | GI50 [7] | TGI [7] | GI50 [8] | TGI [8] | GI50 [9] | TGI [9] | GI50 [10] | TGI [10] |
| --- | --- | --- | --- | --- | --- | --- | --- | --- | --- | --- | --- | --- | --- | --- | --- | --- | --- | --- | --- | --- |
| N#CC1C(=O)NC(c2ccccc2[N+](=O)[O-])c2sc3c(F)cccc3c21 (stereo unspecified) | 5.67 µM | > 60.3 µM | 29.5 µM | > 100 µM | 21.6 µM | > 87.4 µM | 7.86 µM | > 65.4 µM | 5.44 µM | 36.1 µM | 0.216 µM | 37 µM | 2.12 µM | 28.9 µM | 11.5 µM | > 93.9 µM | 33 µM | > 100 µM | 14.3 µM | 33.8 µM |
| Nc1ncnc2c1ccn2[C@@H]1O[C@H]([C@H](O)c2ccc(Cl)c(F)c2)[C@@H](O)[C@H]1O | > 100 µM | > 100 µM | > 100 µM | > 100 µM | > 100 µM | > 100 µM | > 100 µM | > 100 µM | 45.3 µM | > 100 µM | 50.2 µM | > 100 µM | > 100 µM | > 100 µM | 36 µM | > 100 µM | > 100 µM | > 100 µM | 92.6 µM | > 100 µM |
| C/C(=N/N=C(N)N)c1ccc(NC(=O)Nc2ccc(/C(C)=N/N=C(N)N)cc2)cc1 | 3.77 µM | 34.2 µM | 15 µM | 39.9 µM | 21.7 µM | 97.8 µM | 15.2 µM | 30.1 µM | 40.8 µM | > 100 µM | 4.48 µM | 31.2 µM | 21.8 µM | > 60.3 µM | 27.3 µM | > 100 µM | 10.7 µM | 30.1 µM | 10.6 µM | 37.9 µM |
| O=C1NC(c2cccc(OCc3ccccc3)c2)Nc2ccccc21 (stereo unspecified) |  | 1.07 µM |  | > 85.7 µM |  | 3.99 µM |  | 0.47 µM |  | 55 µM |  | 15.2 µM |  | 26.3 µM |  | 0.239 µM |  | 38.8 µM |  | 1.87 µM |
| O=c1c(Cl)cc2nc3ccccc3sc-2c1Cl |  | 25.9 µM |  | 35.2 µM |  | 43.3 µM |  | 30 µM |  | 29.1 µM |  | 32.4 µM |  | 46.1 µM |  | 49.2 µM |  | 45.8 µM |  | 13.9 µM |
| O=C1C=CC2(C=C1)C[C@H](NC(=O)OCc1ccccc1)C(=O)O2 |  | 17.2 µM |  | 27 µM |  | 10 µM |  | 4.33 µM |  | 39.9 µM |  | 25.1 µM |  | > 69.2 µM |  | 31.9 µM |  | 27.6 µM |  | 47.9 µM |
| COC(=O)[C@]12CC[C@@H](C)[C@H](C)[C@@H]1C1=CC[C@@H]3[C@@]4(C)C(C=O)=C[C@@](C)(COC(=O)/C=C/c5ccccc5)[C@@H]4[C@H](O)C[C@@]3(C)[C@]1(C)CC2 | 1.59 µM | 5.73 µM | 2.7 µM | 7.63 µM | 2.39 µM | > 100 µM | 2.29 µM | 6.76 µM | 3.28 µM | 20.2 µM | 2.37 µM | 11.3 µM | 9.4 µM | 32.1 µM | 3.1 µM | 10.2 µM | 5.01 µM | 42.7 µM | 2.2 µM | 5.92 µM |
| O=[N+]([O-])c1ccc(Sc2ccncn2)c([N+](=O)[O-])c1 | 2.59 µM | 8.16 µM | 4.31 µM | 9.44 µM | 0.504 µM | 6.13 µM | 0.75 µM | 3.53 µM | 1.08 µM | 2.84 µM | 2.46 µM | 7.74 µM | 4.47 µM | 15.8 µM | 1.64 µM | 3.81 µM | 2.24 µM | 4.89 µM | 3.27 µM | 11.7 µM |
| COc1cccc(Nc2nccc(-c3cnn4ncccc34)n2)c1 | 0.0621 µM | 0.166 µM | 0.0395 µM | 0.14 µM | 0.0723 µM |  | 0.0114 µM | 0.0946 µM | 0.0707 µM | 0.21 µM | 0.076 µM | > 25 µM | 0.0798 µM | 0.532 µM | 0.0513 µM | 0.198 µM | 0.0871 µM | > 25 µM | 0.0588 µM | 0.561 µM |
| O=C1C2C3C=CC(C2C(=O)N1CN1CCSCC1)C1C2C(=O)N(CN4CCSCC4)C(=O)C2C31 (stereo unspecified) | 32.2 µM | 61.7 µM |  | > 100 µM | 35.1 µM | > 100 µM |  | > 100 µM |  | > 100 µM | 69.1 µM |  |  | > 100 µM |  | > 100 µM |  | > 79.2 µM |  | > 100 µM |
| CSc1ccc(C(=O)/C=C/c2ccccc2Cl)cc1 | 7.11 µM | 37.7 µM | 23.4 µM | 52.9 µM | 19.6 µM | > 100 µM | 2.23 µM | 22.4 µM | 2.31 µM | 5.05 µM | 32.2 µM | > 100 µM | 17.4 µM | 35.4 µM | 21.2 µM | > 100 µM | 13.1 µM | 27.6 µM | 16.7 µM | 31.6 µM |
| CN1CCN(Cc2ccc(NC(=O)c3cncc(C#Cc4cnc(N)c5cnccc45)c3)cc2C(F)(F)F)CC1 | 0.216 µM | 3.25 µM | 0.0937 µM | 0.394 µM | 0.335 µM | 8.71 µM | 0.229 µM | 2.97 µM | 0.42 µM | 1.31 µM | 0.921 µM | 8.75 µM | 0.233 µM | 4.32 µM | 0.115 µM | 6.1 µM | 0.314 µM | 7.73 µM | 0.277 µM | 0.952 µM |
| O=C(/C=C/OC(=O)c1cccc(Cl)c1)c1ccc(Cl)cc1 | 30.5 µM | > 100 µM | 58.1 µM | > 100 µM | 37.5 µM | > 100 µM | 22.9 µM | > 92 µM | > 100 µM | > 100 µM | 48.7 µM | > 100 µM | > 100 µM | > 100 µM | 50 µM | > 100 µM | > 91.7 µM | > 100 µM | 55.2 µM | > 100 µM |
| COc1cc(/C=C/C(=O)c2c(C)nc3ccccc3c2C)ccc1OCCCN1CCN(C(=O)c2ccco2)CC1 | 1.92 µM | 11.9 µM | 12.7 µM | 25.3 µM | 3 µM | 17.9 µM | 2.22 µM | 7.47 µM | 4 µM | 19.6 µM | 3.8 µM | 15.8 µM | 14.7 µM | 30 µM | 7.71 µM | 23.2 µM | 7.83 µM | 20.5 µM | 2.12 µM | 12.6 µM |
